Data taken from patent US12441710B2, “Substituted piperidino compounds and related methods of treatment” (Alkermes, Inc., priority 2020, dated 2025).

What was measured:
Sprague-Dawley rats = assay: Assessment of wake promotion in Sprague-Dawley rats (EEG/EMG); assay type: in vivo, rat; conditions: PO, 3 mpk; male Sprague-Dawley rats; 6-hour post-dose period
Protocol: Wake promotion was assessed using electroencephalography (EEG) and electromyography (EMG) in adult male Sprague-Dawley rats. All rats (Charles River Laboratories, Raleigh, NC, USA) were intraperitoneally implanted with telemetry devices (F50-EEE, Data Sciences International Inc., MN, USA) under isoflurane anesthesia. For EEG, stainless steel screws were implanted over frontal cortex and parietal cortex, and reference screws were placed over cerebellum. Additionally, an electrode was placed in neck muscle for EMG. Rats were given carprofen post-surgery and underwent a 7 to 10-day recovery period. Rats habituated to the experimental room for 7 days and were maintained on a 12-hour light-dark cycle.
EEG and EMG data were recorded using the DSI telemetry system and Ponemah software (Data Sciences International Inc., MN, USA). Sleep-wake stages were scored both manually and with Somnivore, a supervised machine learning software platform, in 10 second epochs. Records were visually inspected as needed post-processing.
All test compounds were dissolved in 5% DMSO and suspended in 95% saline with 0.5% methylcellulose and 0.5% tween. […] Unless otherwise indicated, all compounds were dosed orally. Recordings for each rat were initiated immediately after dosing and lasted for 6 hours post-dose.
Two key endpoints include wakefulness time and cortical activation time. […]

[1] = target: T1, human orexin-2 receptor (OX2R) (Homo sapiens, UniProt O43614); assay: Human OX2R IP1 assay; assay type: cell-based; conditions: T-Rex CHO cells stably overexpressing human OX2R; IP1 accumulation, 1 hr at 37 degrees C
T1 construct: expressed in transfected cells
T1 sequence (O43614 1-444): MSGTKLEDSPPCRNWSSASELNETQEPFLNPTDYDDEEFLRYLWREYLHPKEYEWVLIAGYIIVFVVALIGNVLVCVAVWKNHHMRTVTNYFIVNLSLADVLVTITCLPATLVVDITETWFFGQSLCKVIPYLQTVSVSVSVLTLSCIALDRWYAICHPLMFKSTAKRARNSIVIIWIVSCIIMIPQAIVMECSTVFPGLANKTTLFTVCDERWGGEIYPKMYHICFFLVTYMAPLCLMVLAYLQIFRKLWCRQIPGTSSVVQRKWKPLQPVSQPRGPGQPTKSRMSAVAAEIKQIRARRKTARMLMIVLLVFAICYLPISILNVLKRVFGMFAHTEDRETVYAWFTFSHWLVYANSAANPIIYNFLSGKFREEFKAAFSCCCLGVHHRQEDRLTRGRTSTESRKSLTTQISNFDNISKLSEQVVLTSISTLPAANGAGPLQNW
Protocol: T-Rex CHO cells stably overexpressing the human orexin-2 receptor (OX2R) were induced overnight with 1 μg/mL of doxycycline in a T225 flask. 24 hours post induction, cells were lifted with accutase and plated into a 384-well proxy plate at 30,000 cells/well. Cells were then treated with different test compounds in 1× stimulation buffer containing 10 mM Hepes, 1 mM CaCl2), 0.5 mM MgCl2, 4.2 mM KCl, 146 mM NaCl, 5.5 mM glucose, and 50 mM LiCl, pH 7.4, for 1 hr at 37 degrees C. Following incubation, the reaction was terminated by the addition of detection mix, which is composed of IP1-d2 and anti-IP1-cryptate diluted in lysis buffer as well as 1× stimulation buffer. The plates were allowed to incubate for 1 hour at room temperature and were then read in the EnVision® multimode plate reader, measuring inositol phosphate levels.
Cisbio IP1 is a cell-based functional assay quantifying the accumulation of inositol monophosphate (IP), a metabolite released as a result of orexin 2 receptor activation through the phospholipase C-Gq signaling pathway. This is a competitive immunoassay in which the IP1 produced by the cells upon receptor activation competes with the IP1 analog coupled to the d2 fluorophore (acceptor) for binding to an anti-IP1 monoclonal antibody labeled with Eu cryptate (donor). The measured HTRF-FRET based signal is inversely proportional to the IP1 concentration produced.
The EC50 values reported in Table 2 were obtained according to the human OX2R IP1 assay described above. Data are the mean EC50 values±S.E.M. The compound methyl (2R,3S)-3-((methylsulfonyl)amino)-2-(((cis-4-phenylcyclohexyl)oxy)methyl)-piperidine-1-carboxylate (sometimes referred to herein as Reference Compound A) is a reference compound which is disclosed in Example 5 of PCT publication no. WO2017/135306.

human hepatocytes = assay: Hepatocytes stability assay (human hepatocytes); assay type: in vitro ADME; conditions: hepatic clearance divided by liver blood flow, fu assumed unity
Protocol: (§1) In vitro metabolic stability was assessed using cryopreserved hepatocytes from male Sprague Dawley rats and a pool of 50 mixed gender humans (BioIVT, Baltimore, MD). The incubation mixtures were prepared by mixing 250 μL of pre-warmed KHB (Krebs-Henseleit buffer) containing 2×10^6 cell/mL of hepatocytes with 250 μL of pre-warmed KHB buffer containing 2 μM of test compounds in a 48-well plate, giving a final concentration of 1 μM test compound (0.1% DMSO) and 1×10^6 cell/mL of hepatocytes. The reaction mixture was incubated at 37 degrees C. A 50 μL aliquot of incubation mixture was taken at time points (0, 15, 30, 60, 120 and 240 minutes) and transferred into a 96-well plate containing 300 μL ice-cold acetonitrile (containing 30 ng/mL of labetalol and 10 ng/mL of Naltrexone-d3 as internal standards) and immediately placed in ice to terminate the reaction. Samples were centrifuged, and supernatants were transferred into 96-well plates for liquid chromatography with tandem mass spectrometry (LC-MS/MS) analysis to monitor the depletion of the test compound. Data was calculated as percent remaining by assuming zero-minute time point peak area ratio (analyte/IS) as 100% and dividing remaining time point peak area ratios by zero-minute time point peak area ratio. Data were fitted to a first-order decay model to determine half-life. From a plot of log (ln) peak area against time, the slope of the line was determined. Subsequently, half-life (T1/2) and intrinsic clearance (CLint) were calculated using the equations below: • Elimination rate constant (k)=(−slope) • Half-life (T1/2) min=0.693/k • Intrinsic Clearance (CLint) (mL/min/million cells)=(V×0.693)/T1/2 • V=incubation volume mL/number of cells The in vitro T1/2 was converted to in vitro intrinsic clearance (CLint,hep) in units of mL/min/kg using the formula shown below: The in vitro intrinsic clearance (CLint,hep) was scaled to in vivo hepatic clearance (CL,hep) using the following equation which was adapted from a well-stirred model. [formula] where Q is the liver blood flow and fu is the fraction unbound (assumed to be unity in this case). All parameters used in the calculation are shown below (Table 4). The extraction ratio (ER) was calculated by dividing the hepatic clearance of a compound to the liver blood flow. The data reported in Table 5 were obtained according to the human hepatocytes stability assay described above.

[2] = Hepatocytes stability assay (human hepatocytes); assay type: in vitro ADME; conditions: both sexes, cryopreserved hepatocytes, 1 μM test compound, 1×10^6 cell/mL, read-out: CLint (μL/min/million cells)
Protocol: as §1

MDR1 = assay: MDCK-MDR1 permeability assay; assay type: in vitro ADME; conditions: dog, 3 μM test compound; for efflux ratio at 2 h, 3 μM: Papp (B→A) divided by Papp (A→B), read-out: Efflux ratio (ER); for Papp A→B at 2 h, 3 μM: apical to basolateral, 2 hours at 37 degrees C
Protocol: The bidirectional permeability (Apical to Basal and Basal to Apical directions) of test compounds in MDCK-MDR1 cells were evaluated using MDCK-MDR1 cells seeded in Solvo PreadyPort™ MDCK 96-well plate. Once the plate was received from ReadyCell (Barcelona, Spain), it was treated as per PreadyPort™ user's manual.
For the Apical to Basolateral (A→B) permeability, 80 μL of test compound (3 μM) co-dosed with LY (Lucifer Yellow) (100 μM) in HBSS (Hank's Balanced Salt Solution) assay buffer was added to the donor side (A) while 250 μL of HBSS buffer was added to the receiver side (B). For the Basolateral to Apical (B→A) permeability, 255 μL of test compound (3 μM) in HBSS assay buffer was added to the donor side (B) while 75 μL of HBSS buffer containing LY (100 μM) was added to the receiver side (A).
The plate was placed in an incubator set at 37 degrees C. After 10 minutes of pre-warming, 5 μL aliquot was taken from donor compartment and set aside as the dosing solution. The MDCK-MDR1 incubation plate was placed back into the incubator for 2 hours of incubation at 37 degrees C. After 2 hours of incubation, 25 μL and 5 μL aliquots were removed from the receiver and donor sides, respectively. To the 5 μL aliquots taken from the donor sides (before and after a 2-hour incubation) were diluted with 20 μL of the HBSS buffer. All samples were mixed with 150 μL with acetonitrile containing internal standard (IS) and 200 μL water, and analyzed by LC-MS/MS.
The apparent permeability (Papp) was calculated using the following formula: Papp=dQ/dt×1/A×C0 where: • dQ/dt: amount of translocated material over incubation time (nmol/s) • A: area of insert (0.14 cm^2 for PreadyPort™ MDR1-96) • C0: initial concentration of product applied in apical (A→B) or basal (B→A) compartment (nmol/mL).
The efflux ratio (ER) was measured by dividing the Papp (basolateral to apical direction) by Papp (apical to basolateral direction). It is a general measure of the involvement of active processes. An ER >2 is considered positive for active transport.
The data reported in Table 3 were obtained according to the MDCK-MDR1 permeability assay described above.

Row | Structure (SMILES) | EC50 [1] [nM] | Extraction Ratio (ER) (human hepatocytes) | hepatocyte CLint at 1 μM [2] [µL/min/1e6 cells] | efflux ratio at 2 h, 3 μM (MDR1) | Papp A→B at 2 h, 3 μM (MDR1) [×10⁻⁶ cm/s] | Mean cortical activation time (% vehicle treatment) (Sprague-Dawley rats)
1 | CS(=O)(=O)N[C@H]1CCN(c2ccccn2)C[C@H]1CO[C@H]1CC[C@@H](c2cccc(F)c2)CC1 [Compound 6] | < 100 | 0.87 | 44 | 2.8 | 1.3 | 
2 | CS(=O)(=O)N[C@H]1CCN(c2ccccn2)CC1COC1CCN(c2ncccn2)CC1 (some centres unmarked) [Compound 1] | > 1000 | 0.82 | 31 | 12 | 2.7 | 
3 | CS(=O)(=O)N[C@H]1CCN(c2ccccn2)CC1COC1CCC(c2ccccc2F)CC1 (some centres unmarked) [Compound 5] |  | 0.88 | 49 | > 7.2 | < 0.9 | 
4 | CS(=O)(=O)N[C@H]1CCN(c2ccccn2)CC1COC1CCC(c2cccc(O)c2)CC1 (some centres unmarked) [Compound 31] |  | 0.92 | 81 | 18 | 1 | 
5 | CS(=O)(=O)N[C@H]1CCN(c2ccccn2)CC1COC1CCC(c2ccc(F)cc2)CC1 (some centres unmarked) [Compound 7] |  | 0.85 | 39 | > 4.3 | < 1.2 | 
6 | C[C@@]1(COC2CCC(c3ccccc3)CC2)CN(c2ccccn2)CC[C@@H]1NS(C)(=O)=O (some centres unmarked) [Compound 29] |  | 0.82 | 30 | > 17 | < 0.42 | 
7 | CS(=O)(=O)N[C@H]1CCN(c2ncccc2F)CC1COC1CCC(c2ccccc2)CC1 (some centres unmarked) [Compound 26] |  | 0.89 | 55 | 37 | 0.31 | 
8 | CS(=O)(=O)N[C@H]1CCN(c2cnccn2)CC1COC1CCC(c2ccccc2)CC1 (some centres unmarked) [Compound 21] |  | 0.94 | 101 | 35 | 0.69 | 
9 | CS(=O)(=O)N[C@H]1CCN(c2ncccc2O)CC1COC1CCC(c2ccccc2)CC1 (some centres unmarked) [Compound 27] |  | 0.92 | 75 | 3 | 2.7 | 
10 | CS(=O)(=O)N[C@H]1CCN(c2ccccn2)CC1COC1CCC(c2cccc(C(F)(F)F)c2)CC1 (some centres unmarked) [Compound 33] |  | 0.92 | 79 | 15 | 0.07 | 

Second part, led by results:

Row | EC50 [1] [nM] | Extraction Ratio (ER) (human hepatocytes) | hepatocyte CLint at 1 μM [2] [µL/min/1e6 cells] | efflux ratio at 2 h, 3 μM (MDR1) | Papp A→B at 2 h, 3 μM (MDR1) [×10⁻⁶ cm/s] | Structure (SMILES) | Mean cortical activation time (% vehicle treatment) (Sprague-Dawley rats)
11 | < 100 |  |  |  |  | O=S(=O)(N[C@H]1CCN(c2ccccn2)C[C@H]1CO[C@H]1CC[C@@H](c2ccccc2)CC1)C(F)(F)F [Compound 53] | 105.00
12 | > 1000 | 0.94 | 99 | 12 | 0.38 | C[C@@H](c1ccccc1)N1CC[C@H](NS(C)(=O)=O)C(COC2CCC(c3ccccc3)CC2)C1 (some centres unmarked) [Compound 37] | 
13 |  | 0.90 | 59 | 15 | 1.4 | CS(=O)(=O)N[C@H]1CCN(Cc2ccccn2)CC1COC1CCC(c2ccccc2)CC1 (some centres unmarked) [Compound 39] | 
14 | > 1000 | 0.93 | 91 | 3.2 | 0.74 | C[C@H](c1ccccc1)N1CC[C@H](NS(C)(=O)=O)C(COC2CCC(c3ccccc3)CC2)C1 (some centres unmarked) [Compound 38] | 
15 |  | 0.94 | 102 | 8.8 | 2.4 | CS(=O)(=O)N[C@H]1CCN(c2cccc3ncnn23)CC1COC1CCC(c2ccccc2)CC1 (some centres unmarked) [Compound 43] | 
